Source: patent US9765092B2, “Tricyclic piperidine compounds” (ACTELION PHARMACEUTICALS LTD, priority 2013, dated 2017)

These molecules were tested against human TPH1 (Homo sapiens (Human), UniProt P17752) (assay: Biochemical in vitro assay using fluorescence readout (TPH1 inhibition)). Settings: full length human TPH1, 40 μM L-tryptophan, 15° C., 60 minutes, fluorescence at 540 nm; mean if determined several times.
Sequence of human TPH1 (P17752 whole entry): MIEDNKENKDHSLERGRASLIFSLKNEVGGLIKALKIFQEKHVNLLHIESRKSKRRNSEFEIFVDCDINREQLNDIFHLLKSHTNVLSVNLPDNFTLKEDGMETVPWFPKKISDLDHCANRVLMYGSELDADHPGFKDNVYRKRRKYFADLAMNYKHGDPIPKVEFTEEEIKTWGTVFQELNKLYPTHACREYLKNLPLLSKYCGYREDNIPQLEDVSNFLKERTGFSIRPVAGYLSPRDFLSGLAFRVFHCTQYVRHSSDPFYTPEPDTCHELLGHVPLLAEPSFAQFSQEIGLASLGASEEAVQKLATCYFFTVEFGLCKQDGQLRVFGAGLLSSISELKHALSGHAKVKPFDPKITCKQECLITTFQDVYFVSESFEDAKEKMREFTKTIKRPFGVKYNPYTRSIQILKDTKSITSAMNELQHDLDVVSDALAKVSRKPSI
`Cc1nn2c3c(nc2s1)CCN(C(=O)COc1ccc(N2CCC(F)(F)CC2)nc1Cl)C3c1ccc(Cl)cc1F` (stereo not drawn) [Example 1.4.32, 1-(5-(4-Chloro-2-fluorophenyl)-2-methyl-7,8-dihydro-[1,3,4]thiadiazolo[2′,3′:2,3]imidazo[4,5-c]pyridin-6(5H)-yl)-2-((2-chloro-6-(4,4-difluoropiperidin-1-yl)pyridin-3-yl)oxy)ethanone] showed an IC50 of 3 nM.
For `Cc1nn2c3c(nc2s1)CCN(C(=O)COc1ccc(NS(=O)(=O)C2CC2)cc1Cl)C3c1ccc(Cl)cc1F` (stereo not drawn) [Example 1.4.30, N-(3-Chloro-4-(2-(5-(4-chloro-2-fluorophenyl)-2-methyl-7,8-dihydro-[1,3,4]thiadiazolo[2′,3′:2,3]imidazo[4,5-c]pyridin-6(5H)-yl)-2-oxoethoxy)phenyl)cyclo-propanesulfonamide], the IC50 was 10 nM.
`Cc1nn2c3c(nc2s1)CCN(C(=O)COc1ccc(C(=O)N(C)C)nc1Cl)C3c1cnc(N(C)C)s1` (stereo not drawn) [Example 1.22.9, 6-Chloro-5-(2-(5-(2-(dimethylamino)thiazol-5-yl)-2-methyl-7,8-dihydro-[1,3,4]thia-diazolo[2′,3′:2,3]imidazo[4,5-c]pyridin-6(5H)-yl)-2-oxoethoxy)-N,N-dimethylpicolinamide] gave an IC50 of 9 nM.

Same assay, conditions: human TPH1, fluorescence readout
In the case of `Cc1nn2c3c(nc2s1)CCN(C(=O)COc1ccc(C#N)nc1Cl)C3c1sc(C(=O)N(C)C)cc1F` (stereo not drawn) [Example 1.24.4, 5-(6-(2-((2-chloro-6-cyanopyridin-3-yl)oxy)acetyl)-2-methyl-5,6,7,8-tetrahydro-[1,3,4]thiadiazolo[2′,3′:2,3]imidazo[4,5-c]pyridin-5-yl)-4-fluoro-N,N-dimethylthiophene-2-carboxamide], the IC50 is reported as 46 nM.
Work on `Cc1cnc(C2c3c(nc4sc(C)nn34)CCN2C(=O)COc2ccc(C(F)(F)F)cc2Cl)c(F)c1` (stereo not drawn) [Example 1.31.1, 2-(2-chloro-4-(trifluoromethyl)phenoxy)-1-(5-(3-fluoro-5-methylpyridin-2-yl)-2-methyl-7,8-dihydro-[1,3,4]thiadiazolo [2′,3′:2,3]imidazo[4,5-c]pyridin-6(5H)-yl)ethanone] yielded an IC50 of 14 nM.
For `Cc1nn2c3c(nc2s1)CCN(C(=O)COc1ccc(S(N)(=O)=O)cc1C)C3c1ccc(Cl)nc1F` (stereo not drawn) [Example 1.16.2, 4-(2-(5-(6-chloro-2-fluoropyridin-3-yl)-2-methyl-7,8-dihydro-[1,3,4]thiadiazolo[2′,3′:2,3]imidazo[4,5-c]pyridin-6(5H)-yl)-2-oxoethoxy)-3-methylbenzenesulfonamide], the IC50 was 74 nM.
Work on `Cc1nn2c3c(nc2s1)CCN(C(=O)COc1ccc(N2CCCC2)nc1C)C3c1ccc(C2CC2)cc1F` (stereo not drawn) [Example 1.6.16, 1-(5-(4-cyclopropyl-2-fluorophenyl)-2-methyl-7,8-dihydro-[1,3,4]thiadiazolo[2′,3′:2,3]imidazo[4,5-c]pyridin-6(5H)-yl)-2-((2-methyl-6-(pyrrolidin-1-yl)pyridin-3-yl)oxy)ethanone] yielded an IC50 of 13 nM.
For `CNC(=O)c1ccc(OCC(=O)N2CCc3nc4sc(C)nn4c3C2c2ccc(Cl)cc2F)c(Cl)n1` (stereo not drawn) [Example 1.4.21, 6-chloro-5-(2-(5-(4-chloro-2-fluorophenyl)-2-methyl-7,8-dihydro-[1,3,4]thiadiazolo[2′,3′:2,3]imidazo[4,5-c]pyridin-6(5H)-yl)-2-oxoethoxy)-N-methylpicolinamide], the IC50 was 5 nM.
`CNC(=O)c1cc(F)c(C2c3c(nc4sc(C)nn34)CCN2C(=O)COc2ccc(C(N)=O)nc2Cl)s1` (stereo not drawn) [Example 1.25.6, 6-chloro-5-(2-(5-(3-fluoro-5-(methylcarbamoyl)thiophen-2-yl)-2-methyl-7,8-dihydro-[1,3,4]thiadiazolo[2′,3′:2,3]imidazo[4,5-c]pyridin-6(5H)-yl)-2-oxoethoxy)picolinamide] was tested, and the IC50 was 8 nM.
`CCc1ncccc1OCC(=O)N1CCc2nc3sccn3c2C1c1ccc(C)cc1F` (stereo not drawn) [Example 6.10.2, 2-((2-ethylpyridin-3-yl)oxy)-1-(5-(2-fluoro-4-methyl-phenyl)-7,8-dihydrothiazolo[2′,3′:2,3]imidazo[4,5-c]-pyridin-6(5H)-yl)ethanone] gave an IC50 of 7 nM.
`COC(=O)c1ccc(OCC(=O)N2CCc3nc4sc(C)nn4c3C2c2ccc(C3CC3)cc2F)c(Cl)n1` (stereo not drawn) [Example 1.6.21, Methyl 6-chloro-5-(2-(5-(4-cyclopropyl-2-fluorophenyl)-2-methyl-7,8-dihydro-[1,3,4]thiadiazolo[2′,3′:2,3]imidazo[4,5-c]pyridin-6(5H)-yl)-2-oxoethoxy)picolinate] showed an IC50 of 8 nM.
Work on `Cc1nn2c3c(nc2s1)CCN(C(=O)COc1ccc(N2CCOCC2)nc1Cl)C3c1c(C)noc1C` (stereo not drawn) [Example 1.5.2, 2-((2-chloro-6-morpholinopyridin-3-yl)oxy)-1-(5-(3,5-dimethylisoxazol-4-yl)-2-methyl-7,8-dihydro-[1,3,4]thiadiazolo[2′,3′:2,3]imidazo[4,5-c]pyridin-6(5H)-yl)ethanone] yielded an IC50 of 9 nM.
Work on `Cc1nn2c3c(nc2s1)CCN(C(=O)COc1ccc(F)cc1F)C3c1ccc(C2CC2)cc1F` (stereo not drawn) [Example 1.6.1, 1-(5-(4-cyclopropyl-2-fluorophenyl)-2-methyl-7,8-dihydro-[1,3,4]thiadiazolo[2′,3′:2,3]imidazo[4,5-c]pyridin-6(5H)-yl)-2-(2,4-difluorophenoxy)ethanone] yielded an IC50 of 13 nM.
“1-(5-(4-chloro-2-fluorophenyl)-7,8-dihydrothiazolo[2′,3′:2,3]imidazo[4,5-c]pyridin-6(5H)-yl)-2-(2-ethyl-4-fluorophenoxy)ethanone [Example 6.4.1]” was tested, and the IC50 was 14 nM.
`Cc1nn2c3c(nc2s1)CCN(C(=O)COc1c(Cl)nc(N2CCOCC2)c(F)c1F)C3c1ncc(C2CC2)cc1F` (stereo not drawn) [Example 1.14.11, 2-((2-chloro-4,5-difluoro-6-morpholinopyridin-3-yl)oxy)-1-(5-(5-cyclopropyl-3-fluoropyridin-2-yl)-2-methyl-7,8-dihydro-[1,3,4]thiadiazolo[2′,3′:2,3]imidazo[4,5-c]pyridin-6(5H)-yl)ethanone] showed an IC50 of 122 nM.
With `Cc1nn2c3c(nc2s1)CCN(C(=O)COc1ccc(NS(=O)(=O)N(C)C)nc1Cl)C3c1ccc(Cl)cc1F` (stereo not drawn) [Example 1.4.50, N-(6-chloro-5-(2-(5-(4-chloro-2-fluorophenyl)-2-methyl-7,8-dihydro-[1,3,4]thiadiazolo[2′,3′:2,3]imidazo[4,5-c]pyridin-6(5H)-yl)-2-oxoethoxy)pyridin-2-yl)-N′,N′-dimethyl-sulfamide] the IC50 was 78 nM.
For `COc1ccc(C2c3c(nc4sc(C)nn34)CCN2C(=O)COc2ccc(NS(C)(=O)=O)nc2Cl)c(F)c1` (stereo not drawn) [Example 1.3.4, N-(6-chloro-5-(2-(5-(2-fluoro-4-methoxyphenyl)-2-methyl-7,8-dihydro-[1,3,4]thiadiazolo[2′,3′:2,3]imidazo[4,5-c]pyridin-6(5H)-yl)-2-oxoethoxy)pyridin-2-yl)methanesulfonamide], the IC50 was 8 nM.
`Cc1nn2c3c(nc2s1)CCN(C(=O)COc1cccnc1Cl)C3c1ccc(C2CC2)cc1F` (stereo not drawn) [Example 1.6.11, 2-((2-chloropyridin-3-yl)oxy)-1-(5-(4-cyclopropyl-2-fluorophenyl)-2-methyl-7,8-dihydro-[1,3,4]thiadiazolo[2′,3′:2,3]imidazo[4,5-c]pyridin-6(5H)-yl)ethanone] gave an IC50 of 14 nM.
